Where two headings read alike, the source gives them in different places.

Data set [1] can be described thus: in vivo pharmacokinetics in mice. How it is done: in vivo Pharmacokinetics of IPR-803 in mice. Compounds are administered to mice via a single dose of 200 mg/kg by oral gavage using a formulation of saline. Blood ([…]) is taken from the mice at their tails at time intervals of 1, 2, 4, 6, 8 and 10 hours (three time points from each of the 18 mice (21)) post injection. Blood plasma samples are prepared by centrifugation for quantification and HPLC-MS/MS analysis. […] The stability of the compounds in plasma is reflected by the half-life (t1/2). To gain insight into its absorption following oral dosing, intravenous bioavailability of compounds described herein is determined. Compounds are injected intravenously (IV) into the tail vein. Blood plasma samples are prepared from collected blood samples at 5, 10, 20, 45 and 120 minutes (three mice per time point). […] The levels of the compound in tumor tissue remained high even after 10 hours.

The subject of a further data set is TMD-231 cells. Put plainly: xenograft mice model of breast cancer metastasis. It is filed as in vivo. The method, then: in vivo Efficacy of IPR-803 in xenograft mice model of cancer. Breast Cancer Metastasis. The Example is performed as described in Wang et al. (2011) Virtual Screening Targeting the Urokinase Receptor, Biochemical and Cell-Based Studies, Synthesis, Pharmacokinetic Characterization, and Effect on Breast Tumor Metastasis. J Med Chem In press, the disclosure of which is incorporated herein in its entirety. Briefly, TMD-231 cells are inoculated into the mammary fat pad of female NOD/SCID mice. Dosing is initiated at day 15 post implantation. Animals are randomized and treated with vehicle or with test compound by daily oral gavage at a dose of 200 mg/kg.
While uPAR's effects on growth are known to be minimal, its role in promoting invasion and metastasis is widely established. To assess the effect of IPR-803 on metastasis, control and experimental animals were sacrificed and organs (lungs) were removed and evaluated for the presence of tumors. The number and size of metastasis in two to five fields per sample were calculated. A score of 4+ was given to a sample with highest metastasis index and relative metastasis in other samples are calculated (i.e., 1+, 2+, 3+) by a sample-blinded pathologist. […] For example, 11 out of 13 untreated mice developed severe (score=3) or marked (score=4) metastasis to the lung. This is compared to only 4 in the treated mice. Among the treated mice, 4 developed moderate metastasis, and another four were scored at 1 or lower, showing mild metastasis to the lungs.
IPR-803 was administered at 200 mg/kg p.o. to test animals, and conventional evaluation of cancer progression and survival measurements were made. […] It is observed that there is a greater percentage of mild an moderate outcomes in the treatment group compared to the untreated group showing a majority of severe outcomes. In addition, whole animal toxicity was evaluated by periodic measurement of weight change in test animals.

The subject of data set [2] is integrins (phospho p44/42 MAPK, p44/42 MAPK, pSrc Y416, Src, pFAK Y397, FAK). Put plainly: Integrin signaling by gel electrophoresis. It is filed as cell-based.
Data set [3] is described as follows: cellular studies, cytotoxicity of IPR-803. It is filed as cell-based.
For another data set, the target named is T1, uPAR (Homo sapiens, UniProt Q03405).
T1 construct: uPAR comprising amino acids 1-277 was expressed in Drosophila S2 cells; made in house; host or cells: Drosophila S2 cells
T1 sequence (Q03405 23-299): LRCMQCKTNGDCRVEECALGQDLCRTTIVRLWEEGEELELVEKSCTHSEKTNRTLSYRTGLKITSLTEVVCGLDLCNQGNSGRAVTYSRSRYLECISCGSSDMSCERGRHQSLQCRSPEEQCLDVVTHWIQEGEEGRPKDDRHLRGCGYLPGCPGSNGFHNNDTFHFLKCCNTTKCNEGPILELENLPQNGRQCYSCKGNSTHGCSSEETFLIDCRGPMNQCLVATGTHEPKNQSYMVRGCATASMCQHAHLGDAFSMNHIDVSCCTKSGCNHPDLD
Put plainly: Fluorescence polarization, direct binding to uPAR. To be noted: excitation 530 nm, emission 600 nm. The method, then:
Fluorescence polarization in the presence and absence of protein and were measured using identical conditions as described above.
The mP was evaluated in the a presence and absence of competing 10 μM GFD.
(In general: In fluorescence polarisation assays a small probe gives low polarisation when free and higher when bound to something large.)

Setting [4] is: mouse, plasma, po, 200 mg/kg p.o.

In general, bioavailability refers to dose-corrected exposure relative to a reference, in per cent. As a reminder, the AUC(0-inf) is the area under the concentration-time curve extrapolated to infinity. A high value points to more exposure. By AUC(0-t) is commonly meant the area under the concentration-time curve up to a stated or last time point. Low readings indicate less exposure, high ones more exposure. The term Tmax denotes the time from dosing to the highest level. The term half-life denotes how long it takes for the measured level to halve. Lower therefore signals fast loss. Consider `O=C(O)c1cccc(Nc2cc(N3CCCCCC3)c3noc4c3c2C(=O)c2ccccc2-4)c1` [IPR-803, 3-((3-(azepan-1-yl)-6-oxo-6H-anthra[1,9-cd]isoxazol-5-yl)amino)benzoic acid], for which the Cl/F in data set [1] (200 mg/kg p.o.) came out at 0.379 L/h. The “level in the primary tumor” value in data set [1] (LC/MS/MS at 1, 2, 4, 6, and 8 hour intervals) was around 10 µM. For the same compound, in data set [1] (after 10 hours), the “levels of the compound in tumor tissue” value is reported as “remained high”. In data set [1] (mouse, plasma, oral, 200 mg/kg, estimated from p.o. and IV data), the bioavailability was around 4%. In addition, in data set [1] (setting [4]), the AUC(0-inf) was 13700 ng·h/mL, the AUC(0-t) was found to be 11300 ng·h/mL, the Tmax came out at 1 h and the half-life is 4.7 h. Moreover, the Cmax in data set [1] (mouse, plasma, po, 200 mg/kg p.o., read-out: Cmax) is 2600 ng/mL. Moreover, in data set [1] (mouse, plasma, po, 200 mg/kg p.o., read-out: Vdss/F), the Vd/F is 2.23 L. The Cmax in data set [1] (mouse, plasma, mice, 200 mg/kg oral gavage, saline, read-out: maximum concentration (Cmax) in plasma) was found to be 5 µM. The “outcome (cancer progression and survival) compared to vehicle” value in the data set with TMD-231 cells (200 mg/kg p.o., n=15) is recorded as “statistically significant (p<0.013) improvement in outcome”. Further, in the data set with TMD-231 cells (200 mg/kg p.o., n=15, vs vehicle control), the “weight change (whole animal toxicity)” value is recorded as “No significant weight change”. Besides, in the data set with TMD-231 cells (treated mice), the “number of mice scored at 1 or lower, mild metastasis to the lungs” value was “four”; the “number of mice with moderate metastasis” value is 4; the “number of mice with severe (score=3) or marked (score=4) metastasis to the lung” value came to 4. In the data set with TMD-231 cells (treated mice, 200 mg/kg daily oral gavage, 33 day study), this compound returned a tumor volume of around 693 mm^3. In addition, the “effects on tumor size” value in the data set with TMD-231 cells (treated vs untreated) was around 10%. Besides, the “signaling effect on pathways implicated with growth, such as ERK” value in data set [2] was “does not have a signaling affect”. In addition, the cytotoxicity entry in data set [3] is given as “not cytotoxic”. Moreover, the “fluorescence polarization (mP) with increasing uPAR concentration” value at uPAR was “showed a dose response with increasing mP”.
